The test system of test [1] is P. acnes NCTC 737. In words: Minimum inhibitory concentration (MIC) assay, liquid medium. The format is cell-based, Propionibacterium acnes. The method, then:
(§1) The propionibacteria were cultured and maintained on Wilkins-Chalgren Anaerobe Medium (agar and broth) at pH 6.0; all cultures were incubated anaerobically at 37° C. for 72 hours.
This is a standard international method for quantitatively assessing the antimicrobial activity of a compound in a liquid medium. The method used a sterile 96-well microtitre plate, capable of holding about 200 μl of liquid per well. The wells contained liquid culture medium and ranges of decreasing concentrations of the relevant test compound in doubling dilutions (eg, 1000, 500, 250, 125 . . . μg/ml, etc. down to 0.49 μg/ml). The culture media were as described above.
The wells were inoculated with a liquid suspension of freshly grown micro-organism and incubated under the conditions described above. After incubation, the microtitre plate was examined visually (with the aid of a light box) for cloudiness in each well, which would indicate microbial growth. The MIC value was recorded as the lowest concentration of test compound required to inhibit microbial growth, ie, the lowest concentration for which the liquid in the well remained clear.
The assays included both negative (culture medium with no micro-organisms) and positive (culture medium plus diluting solvent plus micro-organism) controls.

Test [2] concerns P. acnes NCTC 737. The experiment in a line: Disc diffusion / synergy disc diffusion assay ((S)DDA). The format is cell-based, Propionibacterium acnes. Conditions: for (S)DDA: diluted 1:2 with placebo, 10 μl per disc; for SDDA with DOSS: 200 μg TCC + 50 μg DOSS on one disc. As for the experimental part:
as §1
(§2) A sterile paper disc was impregnated with a sample of the test compound in a suitable solvent and 30 minutes allowed for the solvents to evaporate (where possible). The disc was then placed on an agar plate onto which the test micro-organism had been inoculated. The plate was then incubated under the conditions described above, following which it was examined visually for signs of microbial growth. If the test compound had antimicrobial activity, a circular zone of no growth would be obtained around the disc. The diameter of this zone of “inhibition” was measured using a ProtoCOL™ automated zone sizer (Synbiosis, Cambridge, UK). In general, a greater diameter and/or area of the zone of inhibition indicates a greater antimicrobial activity in the relevant test compound, although other factors such as test compound mobility through the agar gel may also influence the result.
(§3) Two test a compounds A and B were placed on a single paper disc and the above described DDA procedure repeated. An increase in diameter of the zone of inhibition, compared to the greater of the zone diameters for the two compounds individually, was taken to indicate potential antimicrobial synergy. In practical terms, an increase of greater than 5 mm could be treated as significant.
(§4) Both the DDA and the SDDA test may be carried out using an agar gel supplemented with lipid and/or salt to simulate some of the major components present in human skin and to assess whether these substances might reduce the antimicrobial activity observed for the test compound. Performance under these conditions can provide a more reliable indication of activity on topical application. The supplements used in Examples 1, 11, 12 and 13 below were lipid (either Tween™ 80 at 1% v/v (Example 1) or triolein at 1% v/v (Examples 11, 12 and 13) and sodium chloride (100 mM).

A further test relates to P. granulosum PRP-005. In words: (S)DDA disc diffusion. It counts as cell-based, Propionibacterium granulosum. The method, then: as §1, §2, §3, §4
The next test relates to Strep. mutans ATCC 25175. In words: (S)DDA disc diffusion. It counts as cell-based, Streptococcus mutans. The method, then: The S. mutans was cultured and maintained on Wilkins-Chalgren Anaerobe Medium (agar and broth) at pH 7.0 supplemented with 1 g/L glucose; all cultures were incubated at 37° C. for 48 h in an atmosphere containing 5% CO2.
as §2, §3
For the (S)DDA experiments; 200 μg of the DOS salts and/or the TCC were loaded onto each disc for Por. gingivalis experiments. For the Strep. mutans experiments, 200 μg of the TCC and 50 μg of DOSS were used on each disc. All the experiments were conducted in triplicate.

The test system of test [3] is C. mucifaciens ATCC 700355. In words: (S)DDA disc diffusion. The format is cell-based, Corynebacterium mucifaciens. Conditions: for DDA: 200 μg per disc. As for the experimental part:
(§5) Several Corynebacterium test species were also used in this study, namely C. mucifaciens ATCC 700355, C. striatum NCTC 764, C. xerosis NCTC 11861 and C. jeikeium NCTC 11915. These Gram-positive pathogens are closely related to organisms (aerobic diphtheroids of the genus Corynebacterium) that cause body odour. C. mucifaciens and C. striatum were cultured and maintained on Mueller-Hinton Medium (agar and broth) and were incubated aerobically at 37° C. for 24 hours. C. xerosis and C. jeikeium were cultured and maintained on Mueller-Hinton Medium containing 5% (v/v) lysed horse blood (agar and broth) and were incubated aerobically at 37° C. for 72 hours. A sterile paper disc was impregnated with a sample of the test compound in a suitable solvent and 30 minutes allowed for the solvents to evaporate (where possible). The disc was then placed on an agar plate onto which the test micro-organism had been inoculated. The plate was then incubated under the conditions described above, following which it was examined visually for signs of microbial growth. If the test compound had antimicrobial activity, a circular zone of no growth would be obtained around the disc. The diameter of this zone of “inhibition” was measured using a ProtoCOL™ automated zone sizer (Synbiosis, Cambridge, UK). In general, a greater diameter and/or area of the zone of inhibition indicates a greater antimicrobial activity in the relevant test compound, although other factors such as test compound mobility through the agar gel may also influence the result. Two test a compounds A and B were placed on a single paper disc and the above described DDA procedure repeated. An increase in diameter of the zone of inhibition, compared to the greater of the zone diameters for the two compounds individually, was taken to indicate potential antimicrobial synergy. In practical terms, an increase of greater than 5 mm could be treated as significant. The activities of DOSS and TCC were determined, using (S)DDAs, against the test organisms C. mucifaciens ATCC 700355, C. striatum NCTC 764, C. xerosis NCTC 11861 and C. jeikeium NCTC 11915. 200 μg of the DOSS and/or the TCC were loaded onto each disc. All the experiments were conducted in triplicate.

A further test deals with C. jeikeium NCTC 11915. The experiment in a line: (S)DDA disc diffusion. Conditions: for DDA: 200 μg per disc. It counts as cell-based, Corynebacterium jeikeium. As for the experimental part: as §5
For test [4], the system named is Clost. difficile ATCC 7000057. In words: (S)DDA disc diffusion. Conditions: 200 μg per disc. It counts as cell-based, Clostridium difficile. As for the experimental part:
as §2
Two test a compounds A and B were placed on a single paper disc and the above described DDA procedure repeated. […]
The activities of DOSS and TCC were determined, using (S)DDAs, against a panel of further test micro-organisms, namely B. cereus ATCC 11778, Bact. fragilis ATCC 25285, Clost. difficile […] and E. faecalis ATCC 29212. […]

The mark [5] stands for this setting: supplemented with salt (sodium chloride 100 mM) & lipid (Tween 80 1% v/v), 50 μg DOSS or 200 μg TCC per disc.
The mark [6] stands for this setting: unsupplemented, 50 μg DOSS or 200 μg TCC per disc.
Where [7] appears, read: unsupplemented, with respect to the TCC.
Where [8] appears, read: P. granulosum PRP-005 (MLSK), 200 μg TCC or 50 μg DOSS per disc.
Setting [9] is: 200 μg TCC or 50 μg DOSS per disc.
The mark [10] stands for this setting: 200 μg DOSS + 200 μg TCC on one disc.

This is an account of results in US20100273876A1, “ANTIBACTERIAL FORMULATION COMPRISING A DIALKYL SULPHOSUCCINATE AND A CARBANILIDE ANTIBACTERIAL AGENT” (priority 2007, published 2010).

Values after ≈ are worked out from the molar mass of the structure shown. Like-named read-outs stand apart in the source and are kept apart here.

On to `O=C(Nc1ccc(Cl)cc1)Nc1ccc(Cl)c(Cl)c1` [TCC, N-(4-chlorophenyl)-N′-(3,4-dichlorophenyl) urea], for which the MIC with P. acnes NCTC 737 [1] (Cutibacterium acnes, NCTC737, read-out: MIC) was found to be 0.12 µg/mL (≈ 0.38 µM). The DDA was 15.69 mm in the test with P. acnes NCTC 737 [2] (200 μg of each test compound per disc (Example 2)); 0.00 mm in the test with P. acnes NCTC 737 [2] (setting [5]); 18.76 mm in the test on P. acnes NCTC 737 [2] (setting [6]); 12.13 mm in the test on P. granulosum PRP-005 (setting [8]); 11.95 mm in the test on Strep. mutans ATCC 25175 (setting [9]); 9.59 mm in test [3]. In addition, the DDA (in the test with C. jeikeium NCTC 11915; in test [4]) was 0.0 mm in each case. Also, the “(S)DDA” value with P. acnes NCTC 737 [2] (0.1% w/w TCC solution) worked out at 0.00 mm; in the test on P. acnes NCTC 737 [2] (0.2% w/w TCC solution), 0.00 mm; with P. acnes NCTC 737 [2] (0.3% w/w TCC solution), 30.10 mm. In addition, the results for the SDDA area increase result in the test on P. acnes NCTC 737 [2] (supplemented with salt & lipid) and in the test on P. acnes NCTC 737 [2] (setting [7]) were “∞” and 154.9%, respectively. Moreover, the SDDA increase in the test with P. acnes NCTC 737 [2] (supplemented with salt & lipid) turned out to be 10.57 mm; in the test on P. acnes NCTC 737 [2] (setting [7]), 11.19 mm. Further, the “SDDA with DOSS” value came to 10.57 mm in the test on P. acnes NCTC 737 [2] (supplemented with salt & lipid) and 29.95 mm with P. acnes NCTC 737 [2] (unsupplemented).

As to dioctyl sodium sulphosuccinate [DOSS], in the test with P. acnes NCTC 737 [1], the MIC was 15.6 µg/mL. Besides, the DDA is given as 47.63 mm in the test on P. acnes NCTC 737 [2] (200 μg per disc, pH 6.0, single replicates); 0.00 mm in the test on P. acnes NCTC 737 [2] (setting [5]); 11.81 mm in the test on P. acnes NCTC 737 [2] (setting [6]); 26.31 mm with P. granulosum PRP-005 (setting [8]); 42.96 mm in the test on P. granulosum PRP-005 (P. granulosum PRP-005, 200 μg per disc); 24.1 mm in the test on Strep. mutans ATCC 25175 (setting [9]). The DDA came out at 40.25 mm with Strep. mutans ATCC 25175 (200 μg per disc), 12.92 mm in test [3], 0.0 mm with C. jeikeium NCTC 11915 and 0.0 mm in test [4]. Further, the “DDA + salt” value with P. acnes NCTC 737 [2] (200 μg per disc, pH 6.0, sodium chloride 100 mM) is 45.14 mm; in the test on P. granulosum PRP-005 (P. granulosum PRP-005, 200 μg per disc, sodium chloride 100 mM) it was 46.38 mm. The “DDA + lipid” value in the test with P. acnes NCTC 737 [2] (200 μg per disc, pH 6.0, triolein 1% v/v) was determined as 47.32 mm; in the test on P. granulosum PRP-005 (P. granulosum PRP-005, 200 μg per disc, triolein 1% v/v), 40.47 mm. Further, the “(S)DDA” value with P. acnes NCTC 737 [2] (2.5% w/w DOSS solution (Solutol HS 15/ethanol/water)) is 0.00 mm; with P. acnes NCTC 737 [2] (5% w/w DOSS solution), 31.88 mm; in the test on P. acnes NCTC 737 [2] (7.5% w/w DOSS solution) it was 40.52 mm. Further, the SDDA area increase with Strep. mutans ATCC 25175 is reported as 42.61%; in test [3], 165.45%; in the test on C. jeikeium NCTC 11915, “∞”. Also, the values for the SDDA increase (with Strep. mutans ATCC 25175; in test [3]; in the test on C. jeikeium NCTC 11915) were 4.68 mm, 8.13 mm and 13.81 mm, respectively. The “SDDA with TCC” value with Strep. mutans ATCC 25175 (50 μg DOSS + 200 μg TCC on one disc) turned out to be 28.78 mm; in test [3] (setting [10]), 21.05 mm; in the test on C. jeikeium NCTC 11915 (setting [10]), 13.81 mm.
